Target: TNAP human plasma (Homo sapiens, UniProt P05186)
Experiment: not given
Format: biochemical
Settings: substrate pNPP

SMILES | IC50 [µM]
COc1ccc(OC)c(S(=O)(=O)Nc2cnc3ccc(C(=O)NC4CCCCC4)cc3c2)c1 [Example IX-16, 3-(2,5-Dimethoxy-benzenesulfonylamino)-quinoline-6-carboxylic Acid Cyclohexylamide] | < 5

Target: TNAP (Homo sapiens (Human), UniProt P05186)
Experiment: TNAP (PPi) inhibition assay, pyrophosphate as substrate
Format: biochemical
Settings: not given
How it was run: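 Secreted epitope-tagged human TNAP from transiently transfected COS-1 cells, dialyzed to remove phosphate. Inhibitors tested kinetically at pH 7.4 with PPi as substrate; released phosphate quantified colorimetrically with Biomol Green reagent.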

IC50 [nM] | SMILES
> 1000 | COc1ccc(OC)c(S(=O)(=O)N(c2cnc3ccccc3c2)C(C)C)c1 [Example VII-14, 2,5-Dimethoxy-N-isopropyl-N-(quinolin-3-yl)benzenesulfonamide]
< 100 | COc1ccccc1-c1cncc(NS(=O)(=O)c2cc(Br)ccc2OC)c1 [Example III-35, 5-Bromo-2-methoxy-N-[5-(2-methoxy-phenyl)-pyridin-3-yl]-benzenesulfonamide]
100 to 1000 | COc1ccc(Cl)cc1S(=O)(=O)Nc1cncc(C(=O)N2CCOCC2)c1 [Example IV-34, 5-Chloro-2-methoxy-N-(5-(morpholine-4-carbonyl)pyridin-3-yl)benzenesulfonamide]
> 1000 | COc1ccc(S(=O)(=O)Nc2cccnc2)cc1Cl [Example I-12, 3-Chloro-4-methoxy-N-pyridin-3-yl-benzenesulfonamide]
> 1000 | COc1ccc(C(=O)NC2CCCCC2)cc1S(=O)(=O)Nc1cccnc1 [Example I-20, N-Cyclohexyl-4-methoxy-3-(pyridin-3-ylsulfamoyl)-benzamide]
> 1000 | COc1ccc(OC)c(S(=O)(=O)Nc2ccnn2C)c1 [Example V-12, 2,5-Dimethoxy-N-(2-methyl-2H-pyrazol-3-yl)-benzenesulfonamide]
> 1000 | COc1ccc(Br)cc1S(=O)(=O)Nc1ccnn1C [Example V-11, 5-Bromo-2-methoxy-N-(2-methyl-2H-pyrazol-3-yl)-benzenesulfonamide]
> 1000 | CCCCN(c1cnc2ccccc2c1)S(=O)(=O)c1cc(Br)ccc1OC [Example VII-5, 5-Bromo-N-butyl-2-methoxy-N-(quinolin-3-yl)benzenesulfonamide]
< 100 | CCCOC(=O)c1cncc(NS(=O)(=O)c2cc(OC)ccc2OC)c1 [Example IV-13, Propyl 5-(2,5-dimethoxyphenylsulfonamido)nicotinate]

SMILES | IC50 [nM]
COc1ccc(OC)c(S(=O)(=O)Nc2cnc3ccc(C(=O)NC4CCCCC4)cc3c2)c1 [Example IX-16, 3-(2,5-Dimethoxy-benzenesulfonylamino)-quinoline-6-carboxylic Acid Cyclohexylamide] | < 100
O=S(=O)(Nc1cncc(-c2ccc(OC(F)(F)F)cc2)c1)c1cc(Cl)ccc1OC(F)(F)F [Example XI-3, 5-Chloro-2-(trifluoromethoxy)-N-(5-(4-(trifluoromethoxy)phenyl)pyridin-3-yl)benzenesulfonamide] | 100 to 1000
COc1ccc(OC(F)(F)F)cc1S(=O)(=O)Nc1cncc(-c2ccc(F)cc2)c1 [Example XI-10, N-(5-(4-Fluorophenyl)pyridin-3-yl)-2-methoxy-5-(trifluoromethoxy)benzenesulfonamide] | 100 to 1000
COc1ccc(OC)c(S(=O)(=O)Nc2cncc(-c3ccc(O)cc3)c2)c1 [Example III-7, N-[5-(4-Hydroxy-phenyl)-pyridin-3-yl]-2,5-dimethoxy-benzenesulfonamide] | < 100
CNC(=O)c1ccc2ncc(NS(=O)(=O)c3cc(Br)ccc3OC)cc2c1 [Example IX-7, 3-(5-Bromo-2-methoxy-benzenesulfonylamino)-quinoline-6-carboxylic Acid Methylamide] | < 100
COc1ccc(-c2cncc(NS(=O)(=O)c3cc(Br)ccc3OC)c2)cc1 [Example III-2, 5-Bromo-2-methoxy-N-[5-(4-methoxy-phenyl)-pyridin-3-yl]-benzenesulfonamide] | 100 to 1000
COc1ccc(OC)c(S(=O)(=O)Nc2cnc3ccc(C(=O)NC4CCCCC4)cc3c2)c1 [Example IX-14, 3-(2,5-Dimethoxy-benzenesulfonylamino)-quinoline-6-carboxylic Acid Cyclohexylamide] | < 100
COc1ccc(OC)c(S(=O)(=O)Nc2ccc(Nc3ccccc3)nc2)c1 | > 1000
